Laboratory results published in patent US6362172B1, “Water soluble prodrugs of azole compounds” (Bristol-Myers Squibb Company, priority 2000, dated 2002).
Values after ≈ are worked out from the molar mass of the structure shown.

Experiments:
aqueous solubility = details: for solubility: aqueous; for solubility and stability of the crystalline salt: single polymorph crystalline solids
[1] = conversion of prodrug to parent drug in vivo

Row | SMILES | solubility (aqueous solubility; pH 4.3, aqueous buffer) [µg/mL] | solubility (aqueous solubility; pH 7, aqueous buffer) [µg/mL] | stability in solution (stability in solution) | conversion to parent drug in vivo [1] | solubility and stability of the crystalline salt (aqueous solubility)
1 | C[C@@H](c1nc(-c2ccc(C#N)cc2)cs1)C(Cn1cncn1)(OCOP(=O)(O)O)c1ccc(F)cc1F (stereo partly drawn) [Example 2, (2R,3R)-3-[4-(4-cyanophenyl)thiazol-2-yl]-2-(2,4-difluorophenyl)-1-(1H-1,2,4,- triazol-1-yl)-2-[(dihydrogenphosphonoxy)methoxy]butane] | 5000 to 6000 (≈ 9.13 to 11 mM) | > 10000 | stable in solution | readily converted to parent drug in vivo | –
2 | C[C@@H](c1nc(-c2ccc(C#N)cc2)cs1)[C@@](Cn1cncn1)(OCOP(=O)(O)O)c1ccc(F)cc1F.NCCCC[C@H](N)C(=O)O.NCCCC[C@H](N)C(=O)O [Example 3, Bis lysine salt of (2R,3R)-3-[4-(4-cyanophenyl)thiazol-2-yl]-2-(2,4-difluorophenyl)-1-(1H-1,2,4-triazol-1-yl)-2-[(dihydrogenphosphonoxy)methoxy]butane] | – | – | – | – | good solubility and stability
3 | CC(C)(C)N.C[C@@H](c1nc(-c2ccc(C#N)cc2)cs1)[C@@](Cn1cncn1)(OCOP(=O)(O)O)c1ccc(F)cc1F [Example 4, Tert-butyl amine salt of (2R,3R)-3-[4-(4-cyanophenyl)thiazol-2-yl]-2-(2,4-difluorophenyl)-1-(1H-1,2,4-triazol-1-yl)-2-[(dihydrogenphosphonoxy)methoxy]butane] | – | – | – | – | good solubility and stability
